The target of series [1] is T1, Estrogen receptor alpha (Homo sapiens, UniProt P03372).
T1 construct: host or cells: U-2 OS
It counts as cell-based. Conditions: 24 h exposure, lowest effect level PC10, means from 3 assay runs. The procedure:
(§1) After 24 h, exposure medium was prepared. […] All samples were tested in triplicates. […] Fig. SM_4. […] Fig. SM_4.
(§2) Supplementary Material SM_4
(§3) Overview of CALUX assays.
(§4) This is defined as the concentration of test compound […]
(§5) for an antagonist assay is a PC20.
(§6) PC = positive control. FI = fold induction. PC10: concentration where test compound causes an activation equal to 10% of the maximum effect (positive control). PC20: concentration where test compound causes […]
(§7) FI=1.5: concentration where test
(§8) (A) exemplary graph of concentration- […]
(§9) receptor antagonism assay with PC20 as lowest-effect-level. (C) exemplary graph for assay with 1.5 fold inductionas lowest effect level. 9

A further series deals with T2, Glucocorticoid receptor (Homo sapiens, UniProt P04150).
T2 construct: host or cells: U-2 OS
T2 sequence (P04150 1-777): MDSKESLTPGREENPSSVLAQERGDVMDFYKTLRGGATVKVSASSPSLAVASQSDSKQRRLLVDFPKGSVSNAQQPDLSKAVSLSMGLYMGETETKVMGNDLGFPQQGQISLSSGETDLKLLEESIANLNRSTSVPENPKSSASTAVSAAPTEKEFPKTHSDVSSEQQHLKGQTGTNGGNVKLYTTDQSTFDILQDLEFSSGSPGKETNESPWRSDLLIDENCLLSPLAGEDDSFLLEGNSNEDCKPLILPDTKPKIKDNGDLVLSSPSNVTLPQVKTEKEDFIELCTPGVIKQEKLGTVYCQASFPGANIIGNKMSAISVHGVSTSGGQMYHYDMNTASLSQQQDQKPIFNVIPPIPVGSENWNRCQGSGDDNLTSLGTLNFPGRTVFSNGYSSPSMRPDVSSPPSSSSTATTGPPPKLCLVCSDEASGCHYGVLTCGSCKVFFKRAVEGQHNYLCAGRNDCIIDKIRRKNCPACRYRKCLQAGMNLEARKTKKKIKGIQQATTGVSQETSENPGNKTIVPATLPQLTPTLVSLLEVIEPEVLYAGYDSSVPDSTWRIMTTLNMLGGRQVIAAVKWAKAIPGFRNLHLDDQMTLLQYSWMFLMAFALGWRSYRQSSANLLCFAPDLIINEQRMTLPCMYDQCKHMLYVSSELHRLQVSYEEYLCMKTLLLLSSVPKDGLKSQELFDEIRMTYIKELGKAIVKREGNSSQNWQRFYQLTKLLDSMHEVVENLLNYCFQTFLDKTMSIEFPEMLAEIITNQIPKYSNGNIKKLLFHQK
It counts as cell-based. The following applies: 24 h exposure, lowest effect level PC20, reference agonist at EC50, means from 3 assay runs. The procedure: as §1, §2, §3, §4, §5, §6, §7, §8, §9

A further series has as its target T3, Progesterone receptor (Homo sapiens, UniProt P06401).
T3 construct: host or cells: U-2 OS
T3 sequence (P06401 1-933): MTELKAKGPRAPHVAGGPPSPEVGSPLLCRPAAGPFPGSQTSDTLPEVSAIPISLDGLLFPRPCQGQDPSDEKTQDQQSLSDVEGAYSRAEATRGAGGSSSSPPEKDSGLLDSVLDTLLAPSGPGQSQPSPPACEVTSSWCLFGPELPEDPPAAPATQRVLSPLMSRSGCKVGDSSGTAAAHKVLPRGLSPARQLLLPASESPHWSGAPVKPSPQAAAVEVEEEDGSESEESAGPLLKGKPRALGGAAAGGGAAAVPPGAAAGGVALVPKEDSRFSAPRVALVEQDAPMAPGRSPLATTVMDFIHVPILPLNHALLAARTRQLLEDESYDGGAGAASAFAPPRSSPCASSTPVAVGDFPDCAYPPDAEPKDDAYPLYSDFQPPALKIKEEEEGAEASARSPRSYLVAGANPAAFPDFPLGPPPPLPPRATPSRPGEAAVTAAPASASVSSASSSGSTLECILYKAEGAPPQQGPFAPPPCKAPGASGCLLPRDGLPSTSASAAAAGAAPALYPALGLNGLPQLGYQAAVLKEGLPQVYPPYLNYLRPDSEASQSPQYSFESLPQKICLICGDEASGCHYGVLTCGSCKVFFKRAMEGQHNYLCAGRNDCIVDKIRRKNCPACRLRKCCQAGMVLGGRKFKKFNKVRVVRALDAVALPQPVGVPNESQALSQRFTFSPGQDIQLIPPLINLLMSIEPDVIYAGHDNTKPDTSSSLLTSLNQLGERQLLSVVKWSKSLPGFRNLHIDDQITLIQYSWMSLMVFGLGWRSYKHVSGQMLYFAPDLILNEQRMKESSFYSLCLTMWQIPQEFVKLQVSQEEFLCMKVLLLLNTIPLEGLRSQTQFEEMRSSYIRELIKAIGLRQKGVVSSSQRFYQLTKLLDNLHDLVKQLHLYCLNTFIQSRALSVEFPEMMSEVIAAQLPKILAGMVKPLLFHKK
Briefly: PR-anti CALUX. It counts as cell-based. Conditions: 24 h exposure, lowest effect level PC20, reference agonist at EC50, means from 3 assay runs. The procedure: as §1, §2, §3, §4, §5, §6, §7, §8, §9

The next series has as its target T4, Pregnane X receptor (Homo sapiens, UniProt O75469).
T4 construct: host or cells: U-2 OS
T4 sequence (O75469 1-434): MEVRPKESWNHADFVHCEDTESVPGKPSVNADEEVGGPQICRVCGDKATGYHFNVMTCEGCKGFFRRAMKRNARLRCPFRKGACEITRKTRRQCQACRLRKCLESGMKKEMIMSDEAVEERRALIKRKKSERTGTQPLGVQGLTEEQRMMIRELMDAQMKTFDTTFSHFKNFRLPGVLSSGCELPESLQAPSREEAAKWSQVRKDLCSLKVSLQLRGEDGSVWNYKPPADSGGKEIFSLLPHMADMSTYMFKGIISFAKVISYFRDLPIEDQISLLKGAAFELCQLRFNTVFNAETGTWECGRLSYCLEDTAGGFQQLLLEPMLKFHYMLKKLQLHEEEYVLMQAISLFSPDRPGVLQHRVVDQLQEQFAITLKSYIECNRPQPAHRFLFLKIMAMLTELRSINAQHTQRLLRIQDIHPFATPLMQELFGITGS
Briefly: PXR CALUX. It is filed as cell-based. Conditions: 24 h exposure, lowest effect level PC10, means from 3 assay runs. As to the method:
as §1, §2, §3, §4, §5, §6, §7, §8, §9

Series [2] concerns the target T5, Aryl Hydrocarbon receptor (Rattus norvegicus, UniProt P41738).
T5 construct: host or cells: rat hepatoma H-4-II-E (ATCC CRL-1548)
T5 sequence (P41738 10-853): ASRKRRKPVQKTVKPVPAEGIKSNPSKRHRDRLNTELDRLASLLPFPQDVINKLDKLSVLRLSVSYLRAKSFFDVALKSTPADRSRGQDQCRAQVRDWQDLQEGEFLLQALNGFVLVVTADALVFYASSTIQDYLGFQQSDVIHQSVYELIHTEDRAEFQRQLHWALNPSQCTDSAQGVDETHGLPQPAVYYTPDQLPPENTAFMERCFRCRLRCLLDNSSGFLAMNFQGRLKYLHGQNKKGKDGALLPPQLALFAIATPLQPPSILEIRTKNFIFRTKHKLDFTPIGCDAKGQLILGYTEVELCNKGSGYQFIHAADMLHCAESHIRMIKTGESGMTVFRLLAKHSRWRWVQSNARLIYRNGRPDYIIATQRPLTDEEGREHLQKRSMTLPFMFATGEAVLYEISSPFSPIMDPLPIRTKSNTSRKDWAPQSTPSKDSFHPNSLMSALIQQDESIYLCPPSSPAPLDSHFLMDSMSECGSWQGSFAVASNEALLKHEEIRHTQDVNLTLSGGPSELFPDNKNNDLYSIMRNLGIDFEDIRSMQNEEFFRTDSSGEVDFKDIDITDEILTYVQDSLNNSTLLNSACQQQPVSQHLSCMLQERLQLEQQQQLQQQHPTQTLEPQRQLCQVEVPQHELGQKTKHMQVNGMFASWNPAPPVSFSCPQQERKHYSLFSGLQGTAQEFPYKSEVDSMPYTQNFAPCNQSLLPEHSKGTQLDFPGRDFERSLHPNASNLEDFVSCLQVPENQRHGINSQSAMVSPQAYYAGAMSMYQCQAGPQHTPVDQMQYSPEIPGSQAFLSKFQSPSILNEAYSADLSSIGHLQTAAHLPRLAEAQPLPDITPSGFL
Briefly: DR CALUX / AhR CALUX (rat hepatoma H-4-II-E cells). It is filed as cell-based. Conditions: 24 h exposure, lowest effect level PC10, means from 3 assay runs.

For the next series, the system named is U-2 OS cells. The series is described as follows: Cytotox CALUX. Conditions: 24 h exposure, lowest effect level PC20, means from 3 assay runs.
The test system of series [3] is U-2 OS reporter cell lines battery. Briefly: CALUX reporter gene assay battery as a whole. Conditions: all CALUX assays, 13 concentrations, 24 h exposure.
Description: CALUX® assay procedure: Testing was performed in non-blinded fashion. […] In brief, the assay was performed in assay medium, consisting of DMEM without phenol red indicator (Gibco) supplemented with 5% charcoal-stripped fetal calf serum (DCC), 1 × non-essential amino acids (Gibco) and 10 U/ml penicillin and 10 µg/ml streptomycin. A cell suspension in assay medium was made of 1 × 10^5 cells/ml, and white 384-wells plates were seeded with 30 µl cell suspension/well. After 24 h, exposure medium was prepared. A dilution series in 0.5 log unit increments of each test compound (in DMSO) was added to a 96-wells plate containing assay medium. Of this exposure mixture, 30 µl was added to the assay plates containing the CALUX® cells, resulting in a final DMSO concentration of 0.1%. Additionally, DMSO blanks and a full dose response curve of the reference compounds were included on each plate. All samples were tested in triplicates. The preparation of the compound dilution series as well as the exposure of the cells were performed on a Hamilton Starlet liquid handling robot coupled to a Cytomat incubator. […] Subsequently, the luciferase signal was measured in a luminometer (InfinitePro coupled to a Connect Stacker, both TECAN). To be able to detect receptor antagonism, the assays were also performed in antagonistic mode using the receptor cell lines. The assay procedure was as described above, with the only exception that the reference agonists were present during the exposure at a concentration corresponding to their EC50.
ERa CALUX Estrogen receptor agonists PC10 estradiol
AR CALUX Androgen receptor agonists PC10 dihydrotestosterone(DHT)
AR-anti CALUX Androgen receptor antagonists PC20 flutamide
PR CALUX Progesterone receptor agonists PC10 Org2058
PR-anti CALUX Progesterone receptor antagonists PC20 Ru486
GR CALUX Glucocorticoid receptor agonists PC10 dexamethasone (DEX)
GR-anti CALUX Glucocorticoid receptor antagonists PC20 Ru486
TRb CALUX Thyroid receptor agonists PC10 3,3‘5-trioiodo-L-thyronine (T3)
TRb-anti CALUX Thyroid receptor antagonists PC20 deoxynivalenol
RAR CALUX Retinoic acid receptor agonists PC10 retinoic acid
LXR CALUX Liver X receptor agonists PC10 GW3965 hydrochloride
PXR CALUX Pregnane X receptor agonists PC10 nicardipine
PPARa CALUX Peroxisomeproliferator activated receptor agonists PC10 GW7647 PPARg2 CALUX Peroxisome proliferator activated receptor agonists PC10 rosiglitazone
DR CALUX / AhR Aryl Hydrocarbon receptor agonists PC10 2,3,7,8-TCDD
Hif1a CALUX Chemical hypoxia response PC10 cobaltous(II)chloride
TCF CALUX wnt/TCF pathway activation FI=1.5 lithium chloride
AP-1 CALUX AP1 pathway activation / cell cycle control PC10 TPA (PMA)
ESRE CALUX Endoplasmic reticulum stress PC10 tunicamycin
NFkB CALUX Activation of NF-kB pathway (immune response) PC10 TPA (PMA)
Nrf2 CALUX Oxidative stress FI=1.5 curcumine
p21 CALUX Transcription of p21 inhibitor of cell cycle progression PC10 actinomycin D
p53 CALUX p53-dependent pathway activation / genotoxicity FI=1.5 actinomycin D
(§10) The point od departure (PoD) if all these assays is defined by a “lowest effect level”.
(§11) A typical endpoint for an agonist assay is a PC10. This is defined as the concentration of test compound
giving a signal level that corresponds to 10% of the difference of the baseline (no agonist) and the maximal
The subject of series [4] is AP1 pathway activation / cell cycle control. The series is described as follows: AP-1 CALUX. It is filed as cell-based, human. Conditions: 24 h exposure, lowest effect level PC10, means from 3 assay runs. As to the method:
as §1, §2, §3, §4, §5, §6, §7, §8, §9

A further series has as its system Nrf2 (Oxidative stress). The series is described as follows: Nrf2 CALUX. It is filed as cell-based, human. Conditions: 24 h exposure, lowest effect level FI=1.5, means from 3 assay runs. As to the method:
as §1, §2, §3, §4, §5, §6, §7, §8, §9

Series [5] concerns p53-dependent pathway activation / genotoxicity. It counts as cell-based, human. Conditions: 24 h exposure, lowest effect level FI=1.5, means from 3 assay runs. As to the method: as §1, §2, §3, §4, §5, §6, §7, §8, §9
On the set-up of series [6]: method as in Sommar et al. 2000. Conditions: KAW < 0.03 considered non-volatile; ref Sommar et al. 2000; cited from earlier work.
Series [7] concerns the target T1, Estrogen receptor alpha. The series is described as follows: ERa-anti CALUX. It counts as cell-based. The following applies: 24 h exposure, lowest effect level PC20, reference agonist at EC50, means from 3 assay runs. As to the method: as §1
Cell line Endpoint effect Reference compound […]
ERa-anti CALUX Estrogen receptor antagonists PC20 tamoxifen […]
Cytotox CALUX Cytoxicity PC20 tributyltinacetate
as §2, §3, §4, §5, §6, §7, §8, §9

Another series addresses T6, Androgen receptor (Homo sapiens, UniProt P10275).
T6 construct: host or cells: U-2 OS
T6 sequence (P10275 1-920): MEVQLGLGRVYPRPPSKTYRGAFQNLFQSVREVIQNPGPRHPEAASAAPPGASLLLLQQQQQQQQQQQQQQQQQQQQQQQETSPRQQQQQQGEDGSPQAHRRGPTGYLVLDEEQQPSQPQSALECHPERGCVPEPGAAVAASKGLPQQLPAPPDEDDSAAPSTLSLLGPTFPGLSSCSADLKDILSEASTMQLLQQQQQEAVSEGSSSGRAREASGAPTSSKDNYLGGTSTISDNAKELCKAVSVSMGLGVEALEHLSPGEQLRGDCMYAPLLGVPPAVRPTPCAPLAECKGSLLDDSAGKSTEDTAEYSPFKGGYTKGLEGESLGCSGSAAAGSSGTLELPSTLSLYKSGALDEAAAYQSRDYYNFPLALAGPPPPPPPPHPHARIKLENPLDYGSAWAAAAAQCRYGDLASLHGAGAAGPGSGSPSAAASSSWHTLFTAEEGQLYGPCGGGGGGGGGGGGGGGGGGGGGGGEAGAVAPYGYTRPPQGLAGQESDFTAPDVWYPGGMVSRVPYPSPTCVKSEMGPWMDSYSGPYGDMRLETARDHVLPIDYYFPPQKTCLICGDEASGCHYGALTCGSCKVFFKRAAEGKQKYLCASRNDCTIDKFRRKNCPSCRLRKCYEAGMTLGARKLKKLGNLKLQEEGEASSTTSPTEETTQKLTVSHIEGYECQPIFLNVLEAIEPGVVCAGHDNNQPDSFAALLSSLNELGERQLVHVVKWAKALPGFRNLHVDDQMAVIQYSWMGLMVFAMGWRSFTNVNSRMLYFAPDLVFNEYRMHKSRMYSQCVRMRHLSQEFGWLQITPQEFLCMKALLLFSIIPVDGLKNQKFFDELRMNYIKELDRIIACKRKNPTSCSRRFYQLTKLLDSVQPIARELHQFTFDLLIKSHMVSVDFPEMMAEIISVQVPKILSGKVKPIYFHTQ
It counts as cell-based. The following applies: 24 h exposure, lowest effect level PC20, reference agonist at EC50, means from 3 assay runs. The procedure:
as §1, §2, §3, §4, §5, §6, §7, §8, §9

On the set-up of series [8]: method as in Nyffeler et al. 2018. The following applies: cell culture plastic; ref Nyffeler et al. 2018; cited from earlier work.

T1 sequence (P03372 whole entry): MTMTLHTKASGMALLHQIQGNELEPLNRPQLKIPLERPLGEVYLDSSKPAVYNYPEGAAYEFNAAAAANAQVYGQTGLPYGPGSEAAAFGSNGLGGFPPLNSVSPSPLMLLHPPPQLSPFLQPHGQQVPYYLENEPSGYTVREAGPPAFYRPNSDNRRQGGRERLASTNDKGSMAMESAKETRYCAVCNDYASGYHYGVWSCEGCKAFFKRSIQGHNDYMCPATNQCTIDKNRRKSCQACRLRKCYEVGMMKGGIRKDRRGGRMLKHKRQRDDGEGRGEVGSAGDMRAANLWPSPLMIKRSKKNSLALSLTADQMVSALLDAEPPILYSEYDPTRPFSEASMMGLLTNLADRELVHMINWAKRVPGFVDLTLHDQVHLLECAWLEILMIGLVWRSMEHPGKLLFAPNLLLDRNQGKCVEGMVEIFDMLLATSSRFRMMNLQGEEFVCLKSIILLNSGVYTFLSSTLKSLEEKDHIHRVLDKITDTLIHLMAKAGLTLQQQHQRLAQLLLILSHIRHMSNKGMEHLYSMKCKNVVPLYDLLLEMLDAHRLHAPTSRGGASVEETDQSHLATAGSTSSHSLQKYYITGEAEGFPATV
Description for U-2 OS cells: Wild-type U-2 OS cells (HTB-96) were obtained from ATCC.
CALUX® assay procedure: Testing was performed in non-blinded fashion. […] In brief, the assay was performed in assay medium, consisting of DMEM without phenol red indicator (Gibco) supplemented with 5% charcoal-stripped fetal calf serum (DCC), 1 × non-essential amino acids (Gibco) and 10 U/ml penicillin and 10 µg/ml streptomycin. A cell suspension in assay medium was made of 1 × 10^5 cells/ml, and white 384-wells plates were seeded with 30 µl cell suspension/well. After 24 h, exposure medium was prepared. A dilution series in 0.5 log unit increments of each test compound (in DMSO) was added to a 96-wells plate containing assay medium. Of this exposure mixture, 30 µl was added to the assay plates containing the CALUX® cells, resulting in a final DMSO concentration of 0.1%. Additionally, DMSO blanks and a full dose response curve of the reference compounds were included on each plate. All samples were tested in triplicates. The preparation of the compound dilution series as well as the exposure of the cells were performed on a Hamilton Starlet liquid handling robot coupled to a Cytomat incubator. […] Subsequently, the luciferase signal was measured in a luminometer (InfinitePro coupled to a Connect Stacker, both TECAN).
as §10, §11

For the molecule `O=P(Oc1ccccc1)(Oc1ccccc1)Oc1ccccc1` [Triphenyl phosphate], at Estrogen receptor alpha [1], the “PoD Erα - ago” value is 5.4 -log(M). The “PoD GR - anta” value on Glucocorticoid receptor is 4.8 -log(M). For the same molecule, the “PoD PR - anta” value at Progesterone receptor was 5.2 -log(M). For the same molecule, the “PoD PXR - ago” value at Pregnane X receptor is recorded as 6.1 -log(M). The “PoD AhR - ago” value in series [2] is 4.2 -log(M). Further, the PoD cytotoxicity with U-2 OS cells is given as 4.0 -log(M). The “response profile over the CALUX battery (in words)” value in series [3] is listed as “only activated nuclear hormone receptor related assays”.
`[Cl][Hg][Cl]` [Mercury chloride]: the “PoD AP1” value in series [4] is 5.8 -log(M). Also, the “PoD Nrf2” value with Nrf2 (Oxidative stress) is on record as 5.5 -log(M). The “PoD p53” value in [5] is 5.7 -log(M). Further, in [6], the “air-water partition coefficient KAW” value is 0.02. The PoD cytotoxicity in the series on U-2 OS cells is given as 4.7 -log(M). The “response profile over the CALUX battery (in words)” value in [3] is “only activated stress pathway related assays”.
On to `Clc1cc(Cl)c(-c2cc(Cl)c(Cl)c(Cl)c2Cl)cc1Cl` [PCB180, polychlorinated biphenyl 180], for which, on Estrogen receptor alpha [7], the “PoD Erα - anta” value is recorded as 6.0 -log(M). Also, on Androgen receptor, the “PoD AR - anta” value is recorded as 6.1 -log(M). Besides, at Progesterone receptor, the “PoD PR - anta” value was 6.3 -log(M). Besides, the “PoD PXR - ago” value at Pregnane X receptor is 5.5 -log(M). The “fraction of the compound bound to plastic” value in [8] is “about one third”. For the same molecule, the “response profile over the CALUX battery (in words)” value in [3] is “only activated nuclear hormone receptor related assays”.

Values taken from publication PMC7367925, “The EU-ToxRisk method documentation, data processing and chemical testing pipeline for the regulatory use of new approach methods” (Archives of Toxicology, 2020).
